For the test, the target named is Epidermal growth factor receptor (Homo sapiens) (UniProt P00533). Nature of the test: EGFR protein level change in DLD-1 cells, late-stage follow-up, counter-screen for KLF5 inhibitor project, DLD1 cells, chemiluminescent western blot (AID 588610). The settings on record: 24 h, at 10 µM; for inhibition of EGFR protein level: stronger effect = higher value; for fold change: measured here: EGFR band fold change vs DMSO. On the technique in general: The purpose of a counterscreen is to sort out artefacts and off-target activity.

On to `CN(C(=O)COC(=O)/C=C/c1cccc([N+](=O)[O-])c1)C1CCS(=O)(=O)C1` (stereo not given), for which the inhibition of EGFR protein level was -314% and the fold change is 3.54.
Taken in the same sequence, the figures for `CN(C(=O)CNC(=O)/C=C/c1cccc(Cl)c1)C1CCS(=O)(=O)CC1` were -478% and 5.13.
On to `CN(C(=O)CNC(=O)/C=C/c1cccc(Cl)c1)C1CCS(=O)(=O)C1` (stereo not given), for which the fold change worked out at 5.24.

For the origin of these results see PubChem BioAssay AID588610 (The Scripps Research Institute Molecular Screening Center, 2011).
